Laboratory results published in patent US11994512B2, “Single-cell genomic methods to generate ex vivo cell systems that recapitulate in vivo biology with improved fidelity” (Massachusetts Institute of Technology, priority 2018, dated 2024).

System: intracellular proteome of ENR+CD and ENR organoids
Assay: LC-MS/MS TMT proteomics of ENR+CD versus ENR organoids
Type: cell-based, C57BL/6 mice
Details: for change: up = enriched in ENR+CD, down = enriched in ENR, FDR<0.05 and log fold change cut-off
Text: Because PCs are highly secretory, protein-rich cells, Applicants sought to assess the total intracellular proteome between conditions through liquid chromatography mass spectrometry (LC-MS/MS)-based proteomics. Applicants quantified relative protein abundance across eight samples using isobaric mass tag labeling from four ENR and four ENR+CD samples (M1-1 through M2-2, first digit denotes biological donor, second digit denotes technical replicate) (FIG. 3A). Samples were processed and analyzed in a single 10-plex by LC-MS/MS (FIG. 9A).
To affirm the reproducibility of the associated proteins in the ENR+CD-enriched proteome, Applicants performed relative quantification within differentiation sets.
Mass spectrometry proteomics sample preparation, sequencing, and quantification. Organoid cell pellets were isolated from Matrigel with mechanical dissociation and washed (cold PBS 5X) to remove residual extracellular protein. Proteins were extracted from cell pellets with 8 M urea (Sigma), reduced with 5 mM DTT (Thermo Fisher Pierce) for 45 minutes, alkylated with 10 mM IAA (Sigma) for 45 minutes in the dark, and double digested with both Lysyl Endopeptidase “LysC” (Wako) and trypsin (Promega) overnight at RT. A small aliquot of cellular lysate was removed from each sample for protein quantification via the Pierce™ BCA Protein Assay Kit (Pierce). After proteolytic digestion, the samples were quenched using formic acid to a final concentration of 1.0% and subsequently desalted on 10 mg OASIS HLB solid phase columns (Waters).
The peptides were labeled with TMT-10 isobaric mass tag reagent according to manufacturer's instructions (ThermoFisher Scientific). The peptides were labeled at a 1:8 ratio of peptide to TMT reagent, followed by 1-hour incubation at RT with bench top shaking at 850 rpm. After incubation, a […] of labeled tryptic peptide was removed from each labeled condition, desalted with C18 stage tips, and analyzed via LC-MS/MS using a Thermo Fisher Q Exactive Plus Hybrid Mass Spectrometer (QE-Plus) coupled to a Thermo Fisher EASY-nLC 1000 liquid chromatograph to ensure isobaric label incorporation >95%. An additional 1.0 μg of labeled tryptic peptide was removed from each channel, mixed together, desalted on a C18 stage tip, and analyzed via LC-MS to ensure equal relative protein loads. During these quality control steps, the labeled peptides were stored, unquenched at −80° C.

[1] = ENR+CD versus ENR organoids, sample pairs in aggregate (n=4, 2 technical replicates from two biological donors)
[2] = protein abundance ratio ENR+CD versus ENR organoids, sample pair M1-1, LC-MS/MS TMT proteomics
[3] = protein abundance ratio ENR+CD versus ENR organoids, sample pair M1-2, LC-MS/MS TMT proteomics
[4] = protein abundance ratio ENR+CD versus ENR organoids, sample pair M2-1, LC-MS/MS TMT proteomics
[5] = protein abundance ratio ENR+CD versus ENR organoids, sample pair M2-2, LC-MS/MS TMT proteomics
[6] = protein abundance, ENR+CD versus ENR organoids, aggregate of the four sample pairs
[7] = protein abundance, ENR+CD versus ENR organoids, replicate M1-1, log2 ratio
[8] = protein abundance, ENR+CD versus ENR organoids, replicate M1-2, log2 ratio
[9] = protein abundance, ENR+CD versus ENR organoids, replicate M2-1, log2 ratio
[10] = protein abundance, ENR+CD versus ENR organoids, replicate M2-2, log2 ratio

Substance	Average logFC [1]	M1-1 Log2 Median Normalized [2]	M1-2 Log2 Median Normalized [3]	M2-1 Log2 Median Normalized [4]	M2-2 Log2 Median Normalized [5]	change	Average logFC [6]	M1-1 Log2 Median Normalized [7]	M1-2 Log2 Median Normalized [8]	M2-1 Log2 Median Normalized [9]	M2-2 Log2 Median Normalized [10]
Q7JJ13	−1.145	−1.243	−0.748	−0.9235	−1.666	down	–	–	–	–	–
P97328	–	–	–	–	–	down	−1.236	−1.151	−2.263	−1.4115	−0.12
P07310	–	–	–	–	–	down	−2.279	−1.418	−3.14	−2.0165	−2.541
Q52KR3	−1.393	−2.118	−0.268	−1.3905	−1.67	down	–	–	–	–	–
Q60936	−1.292	−1.293	−1.012	−1.8255	−1.133	down	–	–	–	–	–
Q8BRB7	−1.345	−0.966	−1.077	−1.3755	−1.962	down	–	–	–	–	–
Q9QWG7	−1.142	−1.032	−1.575	−1.8475	−0.115	down	–	–	–	–	–
P97479	–	–	–	–	–	down	−1.162	−1.135	−1.101	−1.2195	−1.191
Q8R0T2	−1.493	−1.662	−0.647	−0.8365	−2.825	down	–	–	–	–	–
Q8VHB5	−1.632	−1.611	−1.401	−1.7625	−1.754	down	–	–	–	–	–
Q91WA1	−1.673	−1.929	−0.883	−1.5765	−2.303	down	–	–	–	–	–
P56716	–	–	–	–	–	up	1.303	0.494	1.733	1.3015	1.329
Q9ET22	1.277	1.451	1.159	1.3455	1.153	up	–	–	–	–	–
Q9R0M0	1.229	1.297	0.675	1.2135	1.732	up	–	–	–	–	–
Q6ZWR6	1.168	1.167	0.703	1.1985	1.566	up	–	–	–	–	–
Q8BHB9	−1.288	−1.576	−1.245	−1.3195	−1.01	down	–	–	–	–	–
P02798	–	–	–	–	–	down	−2.904	−2.904	−2.907	−2.2505	−3.047
O70514	–	–	–	–	–	down	−1.202	−1.413	−1.091	−1.0895	−1.216
Q9CPS7	−1.227	−1.383	−1.226	−0.9215	−1.327	down	–	–	–	–	–
Q9JMC3	1.386	1.758	0.805	1.3105	1.67	up	–	–	–	–	–
Q80TR4	1.235	1.316	1.587	1.2175	0.818	up	–	–	–	–	–
Q03172	–	–	–	–	–	up	1.206	0.832	1.656	1.2325	1.102
P56382 (MVAYWRQAGLSYIRFSQICAKAVRDALKTEFKANAEKTSGSSIKIVKVSKKE; full-length; UniProt P56382 1-52, looked up)	–	–	–	–	–	down	−2.387	−1.051	−3.179	−1.3955	−3.924
Q9D937	−1.943	−2.074	−1.942	−1.0675	−2.286	down	–	–	–	–	–
P47968	–	–	–	–	–	down	−1.292	−0.958	−1.223	−1.2935	−1.827
B9EJA2	–	–	–	–	–	down	−1.156	−1.439	−1.031	−0.9535	−1.2
